Calls of active or inactive are those of the source. The calls are words filed in the database; no cut-off is given here.
Assays:
[1] = test system: 3T3-L1; experiment: Anti-adipogenic activity in mouse 3T3-L1 preadipocytes assessed as decrease in adipocyte numbers at 20 uM measured after 7 days by Oil Red O staining based inverted phase contrast microscopic analysis; format: functional, cell-based; settings: time 7.0 day
[2] = test system: Mesenchymal stem cells; experiment: Anti-adipogenic activity against human bone marrow derived Mesenchymal stem cells assessed as downregulation of SREBP-1c mRNA expression at 20 uM measured after 7 days by qRT-PCR analysis; format: functional, cell-based; settings: time 7.0 day
[3] = test system: Mesenchymal stem cells; experiment: Downregulation of MCP-1 level in human bone marrow derived mesenchymal stem cells at 5 to 20 uM measured after 48 hrs by flow cytometric analysis; format: functional, cell-based; settings: dose 5-20 µM
[4] = test system: Mesenchymal stem cells; experiment: Anti-adipogenic activity in human derived bone marrow mesenchymal stem cells assessed as reduction in adiponectin release measured after 21 days by flow cytometry analysis; format: functional, cell-based; settings: time 21.0 day
[5] = test system: Mesenchymal stem cells; experiment: Anti-adipogenic activity in human derived bone marrow mesenchymal stem cells assessed as reduction in […] release measured after 21 days by flow cytometry analysis; format: functional, cell-based; settings: time 21.0 day
[6] = test system: Mesenchymal stem cells; experiment: Inhibition of lipid droplet accumulation in human bone marrow derived Mesenchymal stem cells at 5 to 20 uM incubated for 21 days by Oil red o staining based microplate reader analysis; format: functional, cell-based; settings: dose 5-20 µM, time 21.0 day
[7] = test system: Mesenchymal stem cells; experiment: Anti-adipogenic activity in human derived bone marrow mesenchymal stem cells assessed as glycerol release at 5 uM incubated for 12 hrs by colorimetric analysis relative to control; format: functional
[8] = test system: Mesenchymal stem cells; experiment: Antidiabetic activity in human bone marrow mesenchymal stem cells assessed as glucose uptake by measuring 2-DG6P level at 15 to 20 uM by glucose uptake assay; format: functional, cell-based; settings: dose 15-20 µM
[9] = test system: Mesenchymal stem cells; experiment: Anti-adipogenic activity in human derived bone marrow mesenchymal stem cells assessed as reduction in adipsin release measured after 21 days by flow cytometry analysis; format: functional, cell-based; settings: time 21.0 day
[10] = test system: Mesenchymal stem cells; experiment: Downregulation of IL6 level in human bone marrow derived mesenchymal stem cells at 5 to 20 uM measured after 48 hrs by flow cytometric analysis; format: functional, cell-based; settings: dose 5-20 µM
[11] = test system: Mesenchymal stem cells; experiment: Cytotoxicity against human bone marrow derived Mesenchymal stem cells assessed as reduction in cell viability at 1 to 20 uM incubated for 1 to 10 days by MTT assay; format: toxicity, cell-based; settings: dose lower 1 µM, time lower 1 day, dose upper 20 µM, time upper 10 day
[12] = test system: Mesenchymal stem cells; experiment: Upregulation of adipsin level in human bone marrow derived mesenchymal stem cells at 5 to 20 uM measured after 48 hrs by flow cytometric analysis; format: functional, cell-based; settings: dose 5-20 µM
[13] = test system: Mesenchymal stem cells; experiment: Inhibition of lipid droplet accumulation in human bone marrow derived Mesenchymal stem cells at 10 to 20 uM by Oil red o staining based microplate reader analysis; format: functional, cell-based; settings: dose 10-20 µM
[14] = test system: Mesenchymal stem cells; experiment: Anti-adipogenic activity in human derived bone marrow mesenchymal stem cells assessed as glycerol release at 20 uM incubated for 12 hrs by colorimetric analysis relative to control; format: functional
[15] = test system: Mesenchymal stem cells; experiment: Anti-adipogenic activity in human derived bone marrow mesenchymal cells assessed as downregulation of FABP4 mRNA expression at 10 to 20 uM measured on day 21 by qRT-PCR analysis; format: functional, cell-based; settings: dose 10-20 µM, time 21.0 day
[16] = test system: Mesenchymal stem cells; experiment: Upregulation of adiponectin level in human bone marrow derived mesenchymal stem cells at 5 to 20 uM measured after 48 hrs by flow cytometric analysis; format: functional, cell-based; settings: dose 5-20 µM
[17] = test system: Mesenchymal stem cells; experiment: Anti-adipogenic activity in human derived bone marrow derived Mesenchymal stem cells assessed as downregulation of C/EBPalpha protein expression at 20 uM measured after 7 days by western blot analysis; format: functional, cell-based; settings: time 7.0 day
[18] = test system: Mesenchymal stem cells; experiment: Downregulation of IL8 level in human bone marrow derived mesenchymal stem cells at 5 to 20 uM measured after 48 hrs by flow cytometric analysis; format: functional, cell-based; settings: dose 5-20 µM
[19] = test system: Mesenchymal stem cells; experiment: Anti-adipogenic activity in human bone marrow derived Mesenchymal stem cells assessed as reduction in adipocyte count at 5 to 20 uM after 21 days by Oil Red O staining based inverted phase contrast microscopic analysis; format: functional, cell-based; settings: dose 5-20 µM, time 21.0 day
[20] = test system: Mesenchymal stem cells; experiment: Downregulation of RBP4 level in human bone marrow derived mesenchymal stem cells at 5 to 20 uM measured after 48 hrs by flow cytometric analysis; format: functional, cell-based; settings: dose 5-20 µM
[21] = test system: Mesenchymal stem cells; experiment: Anti-adipogenic activity in human derived bone marrow derived Mesenchymal stem cells assessed as reduction in PPARgamma expression at 20 uM measured after 7 days by Western blot analysis; format: functional, cell-based; settings: time 7.0 day
[22] = test system: Mesenchymal stem cells; experiment: Anti-adipogenic activity in human derived bone marrow mesenchymal cells assessed as downregulation of GLUT4 mRNA expression at 10 to 20 uM measured on day 21 by qRT-PCR analysis; format: functional, cell-based; settings: dose 10-20 µM, time 21.0 day
[23] = test system: Mesenchymal stem cells; experiment: Anti-adipogenic activity in human derived bone marrow mesenchymal stem cells assessed as glycerol release at 10 uM incubated for 12 hrs by colorimetric analysis relative to control; format: functional
[24] = test system: Mesenchymal stem cells; experiment: Anti-adipogenic activity against human bone marrow derived Mesenchymal stem cells assessed as downregulation of PPARG mRNA expression at 20 uM measured after 7 days by qRT-PCR analysis; format: functional, cell-based; settings: time 7.0 day
[25] = test system: Mesenchymal stem cells; experiment: Anti-adipogenic activity against human bone marrow derived Mesenchymal stem cells assessed as downregulation of C/EBPalpha mRNA expression at 20 uM measured after 7 days by qRT-PCR analysis; format: functional, cell-based; settings: time 7.0 day
[26] = test system: Mesenchymal stem cells; experiment: Anti-adipogenic activity against human bone marrow derived Mesenchymal stem cells assessed as downregulation of C/EBPbeta mRNA expression at 20 uM measured after 7 days by qRT-PCR analysis; format: functional, cell-based; settings: time 7.0 day
[27] = test system: Mesenchymal stem cells; experiment: Anti-adipogenic activity in human derived bone marrow mesenchymal cells assessed as downregulation of LPL mRNA expression at 10 to 20 uM measured on day 21 by qRT-PCR analysis; format: functional, cell-based; settings: dose 10-20 µM, time 21.0 day

CCCCCCCCCCCCCCCCCCOCc1cn(CC2=CC[C@@H]3C(C(=O)OC)=CO[C@@H](OC)[C@H]23)nn1
Activity [1]: Active

COC(=O)C1=CO[C@@H](O)[C@@H]2C(CO)=CC[C@H]12
Activity [1]: Active

COC(=O)C1=CO[C@@H](OC)[C@@H]2C(Cn3cc(COc4ccc5ccc(=O)oc5c4)nn3)=CC[C@H]12
Activity [1]: Active

COC(=O)C1=CO[C@@H](OC)[C@@H]2C(Cn3cc(COCc4ccc(OC)c(OC)c4)nn3)=CC[C@H]12
Activity [1]: Active

COC(=O)C1=CO[C@@H](OC)[C@@H]2C(Cn3cc(COCCc4ccccc4)nn3)=CC[C@H]12
Activity [1]: Active

COC(=O)C1=CO[C@@H](OC)[C@@H]2C(Cn3cc(COCc4ccccc4)nn3)=CC[C@H]12
Activity [1]: Active

COC(=O)C1=CO[C@@H](OC)[C@@H]2C(Cn3cc(CCCOC(c4ccccc4)(c4ccccc4)c4ccccc4)nn3)=CC[C@H]12
Activity [2]: Active | Activity [3]: Active | Activity [1]: Active | Activity [4]: Active | Activity [5]: Active | inhibition [6]: Active | Activity [7]: 17% | Activity [8]: Active | Activity [9]: Active | Activity [10]: Active | Activity [11]: Non-Toxic | Activity [12]: Active | inhibition [13]: Active | Activity [14]: 33% | Activity [15]: Active | Activity [16]: Active | Activity [17]: Active | Activity [18]: Active | Activity [19]: Active | Activity [20]: Active | Activity [21]: Active | Activity [22]: Active | Activity [23]: 25% | Activity [24]: Active | Activity [25]: Active | Activity [26]: Active | Activity [27]: Active

COC(=O)C1=CO[C@@H](OC)[C@@H]2C(Cn3cc(CCBr)nn3)=CC[C@H]12
Activity [1]: Active

COC(=O)C1=CO[C@@H](OC)[C@@H]2C(Cn3cc(COc4cc(C=O)ccc4OC)nn3)=CC[C@H]12
Activity [1]: Active

COC(=O)C1=CO[C@@H](OC)[C@@H]2C(Cn3cc(C4(O)CCCCC4)nn3)=CC[C@H]12
Activity [1]: Active

COC(=O)C1=CO[C@@H](OC)[C@@H]2C(Cn3cc(C(O)(c4ccccc4)c4ccccc4)nn3)=CC[C@H]12
Activity [1]: Active

COC(=O)C1=CO[C@@H](OC)[C@@H]2C(Cn3cc(-c4ccccc4)nn3)=CC[C@H]12
Activity [1]: Active

COC(=O)C1=CO[C@@H](OC)[C@@H]2C(Cn3cc(COCc4cc(OC)ccc4OC)nn3)=CC[C@H]12
Activity [1]: Active

Reference: ChEMBL document CHEMBL5316364, “Genipin Analogue (G300) Inhibits Adipogenic Differentiation of Human Bone Marrow-Derived Mesenchymal Stem Cells through the Suppression of Adipogenic Promoting Factors” (J Nat Prod, 2023)
